Measured values: ChEMBL document CHEMBL1201862, “PubChem BioAssay data set” (2004)
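Step 1: Grow cells in 96-well plates. Step 2: Expose to compound for 48 hours at 5 concentrations. Step 3: Interpolate endpoints linearly; if unreached, use highest concentration. GI50: concentration for 50% inhibition of growth.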 The source made the active and inactive calls. Rule as the data show it: active = GI50 up to about 1.1 µM and inactive = higher.

Assays:
Assay in all cases: NCI anticancer screen, dose series, 48 h
[1] = system: CCRF-CEM
[2] = system: A498
[3] = system: SNB-75
[4] = system: CAKI-1
[5] = system: HCC 2998
[6] = system: SR
[7] = system: NCI-H460
[8] = system: SF-268
[9] = system: UO-31
[10] = system: K562
[11] = system: HCT-15
[12] = system: SN12C
[13] = system: Hs-578T
[14] = system: OVCAR-5
[15] = system: 786-0
[16] = system: DU-145
[17] = system: HL-60
[18] = system: T47D
[19] = system: Malme-3M
[20] = system: MOLT-4
[21] = system: A549
[22] = system: MDA-MB-231
[23] = system: BT-549
[24] = system: SF-295
[25] = system: HOP-62
[26] = system: SK-MEL-5
[27] = system: MDA-N
[28] = system: NCI-H226
[29] = system: SK-OV-3
[30] = system: KM12
[31] = system: SF-539
[32] = system: SW-620
[33] = system: ACHN
[34] = system: TK-10
[35] = system: MDA-MB-435
[36] = system: OVCAR-8
[37] = system: MCF7
[38] = system: SNB-19
[39] = system: NCI-H23
[40] = system: OVCAR-3
[41] = system: U-251
[42] = system: SK-MEL-2
[43] = system: IGROV-1
[44] = system: HT-29
[45] = system: UACC-62
[46] = system: NCI-H522
[47] = system: SK-MEL-28
[48] = system: HCT-116
[49] = system: UACC-257
[50] = system: COLO 205
[51] = system: M14
[52] = system: NCI/ADR-RES
[53] = system: PC-3
[54] = system: OVCAR-4
[55] = system: RXF 393
[56] = system: EKVX
[57] = system: RPMI-8226
[58] = system: LOX IMVI
[59] = system: HOP-92

CN(C)CCNC(=O)c1cccc(CO)c1[N+](=O)[O-]
GI50 [1]: > 100 µM (inactive) | GI50 [2]: > 100 µM (inactive) | GI50 [3]: 75 µM (inactive) | GI50 [4]: > 100 µM (inactive) | GI50 [5]: > 100 µM (inactive) | GI50 [6]: > 100 µM (inactive) | GI50 [7]: > 100 µM (inactive) | GI50 [8]: > 100 µM (inactive) | GI50 [9]: > 100 µM (inactive) | GI50 [10]: > 100 µM (inactive) | GI50 [11]: > 100 µM | GI50 [12]: > 100 µM (inactive) | GI50 [13]: > 100 µM (inactive) | GI50 [14]: > 100 µM (inactive) | GI50 [15]: > 100 µM (inactive) | GI50 [16]: > 100 µM (inactive) | GI50 [17]: > 100 µM (inactive) | GI50 [18]: > 100 µM (inactive) | GI50 [19]: > 100 µM (inactive) | GI50 [20]: > 100 µM (inactive) | GI50 [21]: > 100 µM (inactive) | GI50 [22]: > 100 µM (inactive) | GI50 [23]: > 100 µM (inactive) | GI50 [24]: > 100 µM (inactive) | GI50 [25]: > 100 µM (inactive) | GI50 [26]: > 100 µM (inactive) | GI50 [27]: > 100 µM (inactive) | GI50 [28]: > 100 µM (inactive) | GI50 [29]: > 100 µM (inactive) | GI50 [30]: > 100 µM (inactive) | GI50 [31]: > 100 µM (inactive) | GI50 [32]: > 100 µM (inactive) | GI50 [33]: > 100 µM (inactive) | GI50 [34]: > 100 µM (inactive) | GI50 [35]: > 100 µM (inactive) | GI50 [36]: > 100 µM (inactive) | GI50 [37]: > 100 µM (inactive) | GI50 [38]: > 100 µM (inactive) | GI50 [39]: > 100 µM (inactive) | GI50 [40]: > 100 µM (inactive) | GI50 [41]: > 100 µM (inactive) | GI50 [42]: > 100 µM (inactive) | GI50 [43]: > 100 µM (inactive) | GI50 [44]: > 100 µM (inactive) | GI50 [45]: > 100 µM (inactive) | GI50 [46]: > 100 µM (inactive) | GI50 [47]: > 100 µM (inactive) | GI50 [48]: > 100 µM (inactive) | GI50 [49]: > 100 µM (inactive) | GI50 [50]: > 100 µM (inactive) | GI50 [51]: > 100 µM (inactive) | GI50 [52]: > 100 µM (inactive) | GI50 [53]: > 100 µM (inactive)

CN(/N=C/c1cccs1)c1ccc([N+](=O)[O-])cc1[N+](=O)[O-]
GI50 [54]: > 100 µM (inactive) | GI50 [1]: > 100 µM (inactive) | GI50 [3]: 77.8 µM (inactive) | GI50 [55]: > 100 µM (inactive) | GI50 [4]: > 100 µM (inactive) | GI50 [5]: > 100 µM (inactive) | GI50 [6]: > 100 µM (inactive) | GI50 [7]: > 100 µM (inactive) | GI50 [8]: > 100 µM (inactive) | GI50 [9]: > 100 µM (inactive) | GI50 [10]: > 100 µM (inactive) | GI50 [11]: > 100 µM | GI50 [12]: > 100 µM (inactive) | GI50 [13]: > 100 µM (inactive) | GI50 [15]: > 100 µM (inactive) | GI50 [16]: > 100 µM (inactive) | GI50 [17]: > 100 µM (inactive) | GI50 [18]: > 100 µM (inactive) | GI50 [20]: > 100 µM (inactive) | GI50 [21]: > 100 µM (inactive) | GI50 [22]: > 100 µM (inactive) | GI50 [23]: > 100 µM (inactive) | GI50 [24]: > 100 µM (inactive) | GI50 [25]: > 100 µM (inactive) | GI50 [26]: > 100 µM (inactive) | GI50 [27]: > 100 µM (inactive) | GI50 [29]: > 100 µM (inactive) | GI50 [30]: > 100 µM (inactive) | GI50 [31]: > 100 µM (inactive) | GI50 [32]: > 100 µM (inactive) | GI50 [33]: > 100 µM (inactive) | GI50 [34]: > 100 µM (inactive) | GI50 [35]: > 100 µM (inactive) | GI50 [36]: > 100 µM (inactive) | GI50 [37]: > 100 µM (inactive) | GI50 [38]: > 100 µM (inactive) | GI50 [39]: > 100 µM (inactive) | GI50 [40]: > 100 µM (inactive) | GI50 [41]: > 100 µM (inactive) | GI50 [56]: > 100 µM (inactive) | GI50 [43]: > 100 µM (inactive) | GI50 [44]: > 100 µM (inactive) | GI50 [45]: > 100 µM (inactive) | GI50 [46]: > 100 µM (inactive) | GI50 [57]: > 100 µM (inactive) | GI50 [47]: > 100 µM (inactive) | GI50 [48]: > 100 µM (inactive) | GI50 [49]: > 100 µM (inactive) | GI50 [50]: > 100 µM (inactive) | GI50 [51]: > 100 µM (inactive) | GI50 [52]: > 100 µM (inactive) | GI50 [53]: > 100 µM (inactive)

CC(=O)OCC(OC(C)=O)C(OC(C)=O)C(OC(C)=O)C(/C=N\Nc1nc2ccccc2c(=O)[nH]1)OC(C)=O (stereo not given)
GI50 [1]: > 100 µM (inactive) | GI50 [3]: 27.6 µM (inactive) | GI50 [55]: > 100 µM (inactive) | GI50 [4]: > 100 µM (inactive) | GI50 [5]: > 100 µM (inactive) | GI50 [58]: > 100 µM (inactive) | GI50 [6]: > 100 µM (inactive) | GI50 [7]: > 100 µM (inactive) | GI50 [8]: > 100 µM (inactive) | GI50 [9]: > 100 µM (inactive) | GI50 [10]: > 100 µM (inactive) | GI50 [11]: > 100 µM | GI50 [12]: > 100 µM (inactive) | GI50 [13]: > 100 µM (inactive) | GI50 [14]: > 100 µM (inactive) | GI50 [15]: > 100 µM (inactive) | GI50 [16]: > 100 µM (inactive) | GI50 [17]: > 100 µM (inactive) | GI50 [18]: > 100 µM (inactive) | GI50 [19]: > 100 µM (inactive) | GI50 [59]: > 100 µM (inactive) | GI50 [20]: > 100 µM (inactive) | GI50 [21]: > 100 µM (inactive) | GI50 [22]: > 100 µM (inactive) | GI50 [23]: > 100 µM (inactive) | GI50 [24]: > 100 µM (inactive) | GI50 [25]: > 100 µM (inactive) | GI50 [26]: > 100 µM (inactive) | GI50 [27]: > 100 µM (inactive) | GI50 [28]: > 100 µM (inactive) | GI50 [29]: > 100 µM (inactive) | GI50 [30]: 23.6 µM (inactive) | GI50 [31]: > 100 µM (inactive) | GI50 [32]: > 100 µM (inactive) | GI50 [33]: > 100 µM (inactive) | GI50 [35]: > 100 µM (inactive) | GI50 [36]: > 100 µM (inactive) | GI50 [37]: > 100 µM (inactive) | GI50 [38]: > 100 µM (inactive) | GI50 [39]: > 100 µM (inactive) | GI50 [40]: > 100 µM (inactive) | GI50 [41]: > 100 µM (inactive) | GI50 [56]: 54.7 µM (inactive) | GI50 [42]: > 100 µM (inactive) | GI50 [44]: > 100 µM (inactive) | GI50 [45]: > 100 µM (inactive) | GI50 [46]: > 100 µM (inactive) | GI50 [57]: > 100 µM (inactive) | GI50 [47]: > 100 µM (inactive) | GI50 [48]: > 100 µM (inactive) | GI50 [49]: > 100 µM (inactive) | GI50 [50]: > 100 µM (inactive) | GI50 [51]: > 100 µM (inactive) | GI50 [52]: > 100 µM (inactive) | GI50 [53]: > 100 µM (inactive)
